Assay results published in patent US20130231365A1, “Treatment of Inflammation with Certain Alpha-7 Nicotinic Acid Receptor Agonists in Combination with Acetylcholinesterase Inhibitors” (priority 2010, published 2013).

Molecular target: T1, human alpha7 receptor (Homo sapiens, UniProt P36544)
T1 construct: expressed in transfected cells; host or cells: Xenopus laevis oocytes (cDNA injected into the germinal vesicle)
Assay: Acetylcholine-evoked currents in Xenopus oocytes with co-application of the alpha7 agonist
Format: cell-based
Experimental: FIG. 1 depicts a protocol for administering acetylcholine and (R)-7-chloro-N-(quinuclidin-3-yl)benzo[b]thiophene-2-carboxamide hydrochloride monohydrate to Xenopus oocytes.
FIG. 2 depicts the results of an assay showing the action of acetylcholine and (R)-7-chloro-N-(quinuclidin-3-yl)benzo[b]thiophene-2-carboxamide hydrochloride monohydrate.
In the study described below currents were measures in Xenopus oocytes. Acetylcholine at 40 micromolar was administered prior to administration of (R)-7-chloro-N-(quinuclidin-3-yl)benzo[b]thiophene-2-carboxamide is (R)-7-chloro-N-(quinuclidin-3-yl)benzo[b]thiophene-2-carboxamide hydrochloride monohydrate at 0.3 nM using the protocol depicted in FIG. 1. Currents were normalized to unity versus the average acetylcholine-evoked current measured during the stabilization period (4 time points).
The EC50 for an alpha7 receptor agonist can be measured using Xenopus oocytes as described previously (Boess et al. 2007 J Pharm Exp Therap 321:716; Methfessel et al., 1986 Pflueg Arch Eur J Physiol 407:577-588; Schnizler et at 2003 Receptors Channels 9:41-48). […] Solutions of test compounds in normal frog Ringer's solution are superfused through the recording chamber for 20 s while the voltage-clamp current is recorded. […] By testing with various concentration of the alpha7 receptor agonist the EC50 for agonism can be determined.

T1 sequence (P36544 23-502): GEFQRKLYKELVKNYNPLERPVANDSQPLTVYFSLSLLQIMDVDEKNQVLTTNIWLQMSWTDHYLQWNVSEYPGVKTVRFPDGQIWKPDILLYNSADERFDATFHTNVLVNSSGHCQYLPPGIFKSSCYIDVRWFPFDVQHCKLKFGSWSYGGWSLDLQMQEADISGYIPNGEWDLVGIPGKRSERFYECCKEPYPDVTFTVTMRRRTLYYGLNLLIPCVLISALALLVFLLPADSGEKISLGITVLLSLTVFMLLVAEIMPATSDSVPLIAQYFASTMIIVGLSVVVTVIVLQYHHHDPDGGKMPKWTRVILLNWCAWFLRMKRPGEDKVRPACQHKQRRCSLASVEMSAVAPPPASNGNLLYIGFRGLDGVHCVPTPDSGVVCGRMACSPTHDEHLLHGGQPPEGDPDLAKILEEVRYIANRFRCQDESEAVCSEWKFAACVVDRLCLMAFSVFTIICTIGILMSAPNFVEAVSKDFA

## Cl.O=C(N[C@H]1CN2CCC1CC2)c1cc2cccc(Cl)c2s1 [(R)-7-chloro-N-(quinuclidin-3-yl)benzo[b]thiophene-2-carboxamide hydrochloride monohydrate]
Acetylcholine 40 micromolar given before compound at 0.3 nM, after 8 and 16 minutes incubation, average of 3 cells, FIG. 2
  acetylcholine-evoked current, normalized to unity versus the average current of the stabilization period: large current increase
Very low concentrations of compound, well below the expected EC50
  effect when administered with acetylcholine: synergistic effect
